23 compounds from ChEMBL document CHEMBL5104111, “Boron-Containing heterocycles as promising pharmacological agents” (Bioorg Med Chem, 2022) can be followed below.

Values after ≈ are worked out from the molar mass of the structure shown. Some results are limits rather than exact numbers.

Data set [1] has as its system Streptococcus mutans. Briefly: Antibiofilm activity against Streptococcus mutans ATCC 27351 assessed as bacterial viability at 0.2 uM by SYTO/PI staining based inverted microscopy relative to control. The data set is classed as functional.
A short description of data set [2]: Inhibition of Escherichia coli LeuRS using Escherichia coli tRNA as substrate incubated for 20 mins in presence of 14C-leucine/ATP.
Data set [3] relates to Escherichia coli. Nature of the data set: Antibacterial activity against Escherichia coli ATCC 25922 assessed as bacterial growth inhibition. It is filed as functional.
The test system of data set [4] is Streptococcus mutans. Briefly: Antibacterial activity against Streptococcus mutans assessed as bacterial growth inhibition. It is filed as functional.
For another data set, the system named is Saccharomyces cerevisiae. Nature of the data set: Antifungal activity against Saccharomyces cerevisiae assessed as fungal growth inhibition at 100 ug. As to conditions: read-out: IZ. It is filed as functional.
Data set [5] deals with Aspergillus niger. Briefly: Antifungal activity against Aspergillus niger ATCC 20408 assessed as fungal growth inhibition by plate colony counting method. The data set is classed as functional.
The subject of the next data set is HepG2. Briefly: Cytotoxicity against human HepG2 cells assessed as cell growth inhibition incubated for 72 hrs by Cell Titer Glo assay. As to conditions: HepG2, 72 h. It is filed as functional, cell-based. Background: Cellular ATP, detected with luciferase, serves as a proxy for viable cell number.
Data set [6] concerns Mycobacterium tuberculosis. Briefly: Antibacterial activity against Mycobacterium tuberculosis H37Rv ATCC 25618 assessed as bacterial growth inhibition incubated for 5 days by fluorescence based assay. The data set is classed as functional, organism-based. As to conditions: H37Rv ATCC 25618, 120 h.
Data set [7] can be described thus: Protein binding in human serum. The data set is classed as ADME, cell-free. To be noted: read-out: PB (converted).
Data set [8] in a line: Protein binding in mouse plasma. The data set is classed as ADME, cell-free. As to conditions: read-out: PB (converted).
Another data set concerns MDA-MB-231. Briefly: Anticancer activity against human MDA-MB-231 cells assessed as cell growth inhibition incubated for 72 hrs by MTT assay. To be noted: MDA-MB-231, 72 h. The data set is classed as functional, cell-based. Background: Formazan colour is commonly taken as a measure of viable cells.
Another data set concerns MIA PaCa-2. Briefly: Anticancer activity against human MIA PaCa-2 cells assessed as cell growth inhibition incubated for 72 hrs by MTT assay. It is filed as functional, cell-based. As to conditions: MIA PaCa-2, 72 h.
Data set [9] concerns Mycolicibacterium smegmatis. Briefly: Antibacterial activity against Mycobacterium smegmatis assessed as bacterial growth inhibition. The data set is classed as functional.
The subject of a further data set is A549. Nature of the data set: Cytotoxicity against human A549 cells assessed as cell growth inhibition. It is filed as functional.
Data set [10] deals with Mycobacterium tuberculosis. Nature of the data set: Antibacterial activity against Mycobacterium tuberculosis H37Rv ATCC 27294 assessed as bacterial growth inhibition by radiometry method. The data set is classed as functional.
The nature of data set [11]: Cmax in rat at 25 mg/kg, po. It is filed as ADME, organism-based. On the set-up: dose 25 mg/kg, route po. To be noted: in vivo.
Data set [12] is described as follows: AUC (0 to 24 hrs) in rat at 25 mg/kg, po. The data set is classed as ADME, organism-based. Further details: time < 24 hr, dose 25 mg/kg, route po. As to conditions: in vivo.
The next data set concerns Staphylococcus aureus. Briefly: Antibacterial activity against Staphylococcus aureus ATCC 43300 assessed as bacterial growth inhibition incubated for 1 hr by plate colony counting method. It is filed as functional.
Data set [13] relates to Escherichia coli. Nature of the data set: Antibacterial activity against Escherichia coli ATCC 25922 assessed as bacterial growth inhibition incubated for 72 hrs by broth microdilution method. The data set is classed as functional.
For data set [14], the system named is Mycolicibacterium smegmatis. Nature of the data set: Antibacterial activity against Mycobacterium smegmatis ATCC 700084 assessed as bacterial growth inhibition incubated for 72 hrs by broth microdilution method. The data set is classed as functional. Background: Dilution methods test growth across graded concentrations, often in twofold steps.
For a further data set, the system named is Candida albicans. Nature of the data set: Antifungal activity against Candida albicans assessed as fungal growth inhibition at 25 ug incubated for 48 hrs by disk diffusion method. The data set is classed as functional. To be noted: read-out: IZ.
The test system of data set [15] is Aspergillus niger. Nature of the data set: Antifungal activity against Aspergillus niger assessed as fungal growth inhibition at 25 ug incubated for 48 hrs by disk diffusion method. It is filed as functional. As to conditions: read-out: IZ.
Data set [16] deals with Aspergillus niger. Nature of the data set: Antifungal activity against Aspergillus niger assessed as fungal growth inhibition at 50 ug incubated for 96 hrs by disk diffusion method. To be noted: read-out: IZ. It is filed as functional.
The next data set deals with Verticillium dahliae. Nature of the data set: Antifungal activity against Verticillium dahliae assessed as fungal growth inhibition at 50 ug incubated for 96 hrs by disk diffusion method. It is filed as functional. As to conditions: read-out: IZ.
Data set [17] can be described thus: Binding affinity to Cryptococcus neoformans beta-carbonic anhydrase assessed as inhibition constant preincubated for 15 mins by bromothymol blue staining based assay.
Data set [18] is described as follows: Binding affinity to Candida glabrata beta-carbonic anhydrase assessed as inhibition constant preincubated for 15 mins by bromothymol blue staining based assay. On the set-up: species or system Nakaseomyces glabratus.
Data set [19] is described as follows: Lipophilicity, log P of the compound. It is filed as physicochemical. As to conditions: octanol/water.
Another data set relates to Pseudomonas aeruginosa. Nature of the data set: Antibacterial activity against Pseudomonas aeruginosa assessed as bacterial growth inhibition by broth microdilution method. It is filed as functional.
Data set [20] concerns Mycobacterium tuberculosis. Nature of the data set: Antibacterial activity against Mycobacterium tuberculosis assessed as bacterial growth inhibition. The data set is classed as functional.
Data set [21] can be described thus: Cytotoxicity against HEK293T cells assessed as reduction in cell viability incubated for 48 hrs by MTT assay. The data set is classed as toxicity, cell-based, HEK-293T. To be noted: human.
The next data set concerns Bacillus cereus. Briefly: Antibacterial activity against Bacillus cereus assessed as bacterial growth inhibition at 100 ug incubated for 48 hrs by disk diffusion method. It is filed as functional. As to conditions: read-out: IZ.
In data set [22] the test system is Escherichia coli. Nature of the data set: Antibacterial activity against Escherichia coli assessed as bacterial growth inhibition. It is filed as functional.
A further data set concerns Klebsiella pneumoniae. Briefly: Antibacterial activity against Klebsiella pneumoniae assessed as bacterial growth inhibition. It is filed as functional.

Take `CCCCB1NC(C)(C)CO1`: the Activity in the data set on Streptococcus mutans [1] worked out at 40%.

For orientation: IC50 means the midpoint of a concentration-inhibition curve. As a reminder, the MIC is the least concentration at which growth counts as inhibited. In the case of `Cl.NC[C@H]1OB(O)c2c(OCCCO)cccc21`, in data set [2], the IC50 turned out to be 310 nM. For the same compound, the minimum inhibitory concentration (MIC) in the data set with Escherichia coli [3] stood at 1 µg/mL.

`CC1NB(c2ccccc2)OC1c1ccccc1` (centres undefined): the MIC with Streptococcus mutans [4] is 1300 µM (≈ 308 µg/mL).

With `CCNC(=S)N1N=Cc2ccccc2B1O`, in the data set on Saccharomyces cerevisiae, the zone of inhibition at 100 µg/disc amounted to 4.3 mm.

Take `O=[N+]([O-])c1cccc(B2NC(c3ccccc3)=NO2)c1`: the MIC in the data set on Aspergillus niger [5] was 0.09 µM (≈ 0.024 µg/mL).

In the case of `CCS(=O)(=O)N1N=Cc2ccc(Oc3ccc(C(F)(F)F)cc3/C=N/O)cc2B1O`, the concentration for half-maximal inhibition (IC50) in the data set on HepG2 was more than 100000 nM; in data set [6], 90 nM. Also, the figures for the fraction unbound in [7] and in data set [8] were 0.12 and 0.015, respectively.

For the compound `OB1OCc2ccc(NCc3cc4ccccc4cc3Cl)cc21`, the IC50 with MDA-MB-231 is 11900 nM; in the data set with MIA PaCa-2 it was 2700 nM.

As for `Brc1cccc(B2NC(c3ccccc3)=NO2)c1`, in the data set on Aspergillus niger [5], the MIC was determined as 0.08 µM (≈ 0.0241 µg/mL).

Turning to `O=C(NCCOCCOCCNC(=O)c1ccc2c(c1)B(O)OC2)c1ccc2c(c1)COB2O`, in data set [9], the MIC was 0.78 µM (≈ 0.365 µg/mL). Further, in the data set on A549, the MIC99 is more than 10 µM.

On to `OB1c2ccccc2NC(=S)N1c1ccccc1`, for which the MIC in data set [10] was determined as 8 µg/mL (≈ 31.5 µM).

As a reminder, the Cmax is the peak of the concentration-time curve. The AUC(0-t) is exposure summed from dosing to a finite time, without extrapolation to infinity. Low values mean less exposure, high ones more exposure. Regarding `CC1(C)OB(O)c2cc(NC(=O)c3ccc(F)cc3C(F)(F)F)ccc21` [ACOZIBOROLE], the Cmax in [11] is more than 10000 ng/mL. The compound also had an AUC(0-t) at 24 h in data set [12] of more than 100000 ng·h/mL.

On to `Cc1cccc(N2B(c3cccc([N+](=O)[O-])c3)ON=C2c2ccccc2)c1`, for which the MIC in the data set with Staphylococcus aureus is 0.06 µM (≈ 0.0214 µg/mL).

Turning to `O=C1Nc2ccccc2B(O)N1c1ccccc1`, the MIC in [10] was 8 µg/mL (≈ 33.6 µM).

On to `NC(=S)N1N=Cc2ccccc2B1O`, for which the MIC in the data set with Escherichia coli [13] was found to be 16 µg/mL (≈ 78 µM); in data set [14], 4 µg/mL (≈ 19.5 µM). Further, the zone of inhibition at 25 µg/disc with Candida albicans came out at 6 mm; in the data set with Aspergillus niger [15], 7 mm. Moreover, the values for the zone of inhibition at 50 µg/disc in the data set on Aspergillus niger [16] and in the data set on Verticillium dahliae were 3.1 mm and 3.7 mm, respectively.

Regarding `C=CCNC(=S)N1N=Cc2ccccc2B1O`, the figures for the zone of inhibition at 25 µg/disc in the data set with Candida albicans and in the data set on Aspergillus niger [15] were 9 mm and 7 mm, respectively.

What is called Ki is the dissociation constant of the complex between target and ligand, obtained from inhibition or displacement. Take `O=C(Nc1ccc(F)cc1)Nc1ccc2c(c1)B(O)OC2`: the Ki came out at 78 nM in data set [17] and 75 nM in data set [18].

One may read the logP as the decadic logarithm of the partition coefficient of the neutral form, usually between octanol and water. The low end stands for a more hydrophilic compound, the high end for a more lipophilic compound. Compound `CN1C(=O)C2(Cc3ccccc3B(O)O2)c2ccccc21` (centres undefined) showed a logP in data set [19] of 3.52.

As for `NC(=O)N1N=Cc2ccccc2B1O`, the minimum inhibitory concentration (MIC) was 16 µg/mL (≈ 84.7 µM) in the data set with Escherichia coli [13] and 2 µg/mL (≈ 10.6 µM) in data set [14].

On to `Clc1ccc(-c2noc3c2COB(c2cccc(Br)c2)OC3)cc1`, for which, in the data set with Pseudomonas aeruginosa, the MIC amounted to 25 µg/mL (≈ 61.8 µM).

For orientation: IC90 means the concentration needed for an effect of 90%. Take `N#Cc1ccccc1-c1cccc2c1B(O)OC2`: the IC90 in data set [20] was determined as 30000 nM.

One may read the CC50 as the concentration giving 50% cytotoxicity. Regarding `OB1c2sccc2C=NN1Cc1ccccc1`, the CC50 at 48 h in data set [21] was more than 100000 nM.

Consider `CCNC(=S)N1N=Cc2c(F)cccc2B1O`, for which the zone of inhibition at 100 µg/disc with Bacillus cereus is 3.4 mm.

As to `Cc1ccc(S(=O)(=O)N2N=Cc3ccccc3B2O)cc1`, the MIC in the data set on Escherichia coli [22] is 25 µg/mL (≈ 83.3 µM); in the data set on Klebsiella pneumoniae, 3.1 µg/mL (≈ 10.3 µM).
